Data set [1] is described as follows: Metabolic stability test in liver S9. It counts as in vitro ADME. As to conditions: pH 7.4, human liver S9 2 mg protein/mL, LC/MS; for remaining at 10 min: unchanged form after 10 minutes at 37°C, read-out: Remaining rate in human liver S9 (%/10min); for remaining at 1 h: unchanged form after 60 minutes at 37°C, read-out: Remaining rate in human liver S9 (%/60min). Summed up: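 Compound from DMSO solution was incubated at 37°C with human liver S9 (final 2 mg protein/mL) in 100 mM potassium phosphate pH 7.4 with an NADPH-regenerating system for 0, 10 and 60 minutes. Reactions were stopped with acetonitrile/0.1% formic acid. Unchanged compound was measured by LC/MS as remaining rate (%) relative to zero time.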

A short description of data set [2]: Stability test in buffer (pH 7.4). It counts as physicochemical. Particulars: phosphate buffer/acetonitrile 7:3, 100 mM potassium phosphate buffer (pH 7.4) and acetonitrile 7:3 (v/v), LC/MS; for remaining at 10 min: 10 minutes at 37°C, read-out: Buf. remaining rate (%/10min); for remaining at 1 h: 60 minutes at 37°C, read-out: Buf. remaining rate (%/60min). Summed up: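 Parent compound measured by LC/MS after 0, 10 or 60 min at 37°C in a 7:3 (v/v) mix of 100 mM potassium phosphate buffer and acetonitrile, with the reaction stopped by acetonitrile plus formic acid (final 0.1%). Percentage remaining is expressed relative to the zero-time amount.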

Data set [3] is described as follows: Metabolic stability test in plasma. In kind it is in vitro ADME, human. Particulars: LC/MS; for remaining at 10 min: unchanged form after 10 minutes at 37°C in human plasma, read-out: Remaining rate in human plasma (%/10min); for remaining at 1 h: unchanged form after 60 minutes at 37°C in human plasma, read-out: Remaining rate in human plasma (%/60min). Summed up:
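Remaining rate (%) versus zero time was derived from LC/MS measurement of parent compound after centrifugation. Plasma from human, mouse and hamster received DMSO-dissolved compound and was held at 37°C for 0, 10 or 60 minutes before acetonitrile containing formic acid (final 0.1%) stopped the reaction.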

`CN(C)C(=O)c1cc(CCCC(=O)Oc2ccc(C(=O)OCc3ccncc3)cc2)ccc1NC(=O)c1ccccc1-c1ccc(C(F)(F)F)cc1` [Compound 1-84, 4-[4-(3-dimethylcarbamoyl-4-{(4'-trifluoromethylbiphenyl-2-carbonyl)amino}phenyl)butyryloxy]benzoic acid pyridin-4-ylmethyl ester]: the remaining at 10 min in data set [1] stood at 1%; in data set [2], 99%; in data set [3], 21%. For the same compound, the values for the remaining at 1 h in data set [1], in data set [2] and in data set [3] were 0%, 101% and 0%, respectively.
In the case of `CN(C)C(=O)COC(=O)c1ccc(OC(=O)CCCc2ccc(NC(=O)c3ccccc3-c3ccc(C(F)(F)F)cc3)c(C(=O)N(C)C)c2)cc1` [Compound 1-85, 4-[4-(3-dimethylcarbamoyl-4-{(4'-trifluoromethylbiphenyl-2-carbonyl)amino}phenyl)butyryloxy]benzoic acid dimethylcarbamoylmethyl ester], the remaining at 10 min in data set [1] is 0%; in data set [2], 103%; in data set [3], 61%. Further, the remaining at 1 h in data set [1] turned out to be 0%; in data set [2], 102%; in data set [3], 4%.
`COC(=O)COC(=O)c1ccc(OC(=O)CCCc2ccc(NC(=O)c3ccccc3-c3ccc(C(F)(F)F)cc3)c(C(=O)N(C)C)c2)cc1` [Compound 1-86, 4-[4-(3-dimethylcarbamoyl-4-{(4'-trifluoromethylbiphenyl-2-carbonyl)amino}phenyl)butyryloxy]benzoic acid methoxycarbonylmethyl ester]: the remaining at 10 min stood at 0% in data set [1], 99% in data set [2] and 40% in data set [3]. For the same compound, the remaining at 1 h in data set [1] was found to be 0%; in data set [2], 103%; in data set [3], 0%.
With `CN(C)C(=O)c1cc(CCCC(=O)Oc2ccc(C(=O)OCc3cccc(Cl)c3)cc2)ccc1NC(=O)c1ccccc1-c1ccc(C(F)(F)F)cc1` [Compound 1-87, 4-[4-(3-dimethylcarbamoyl-4-{(4'-trifluoromethylbiphenyl-2-carbonyl)amino}phenyl)butyryloxy]benzoic acid 3-chlorobenzyl ester], the remaining at 10 min came out at 11% in data set [1], 100% in data set [2] and 60% in data set [3]. For the same compound, the remaining at 1 h came to 2% in data set [1], 104% in data set [2] and 2% in data set [3].
For the compound `CCC(=O)c1ccc(OC(=O)CCCc2ccc(NC(=O)c3ccccc3-c3ccc(C(F)(F)F)cc3)c(C(=O)N(C)C)c2)cc1` [Compound 1-88, 4-(3-dimethylcarbamoyl-4-{(4'-trifluoromethylbiphenyl-2-carbonyl)amino}phenyl)butyric acid 4-propionylphenyl ester], the remaining at 10 min was found to be 0% in data set [1], 102% in data set [2] and 39% in data set [3]. The remaining at 1 h in data set [1] was 0%; in data set [2], 101%; in data set [3] it was 0%.
Regarding `CN(C)C(=O)c1cc(CCCC(=O)Oc2ccc(C(=O)OCCOCc3ccccc3)cc2)ccc1NC(=O)c1ccccc1-c1ccc(C(F)(F)F)cc1` [Compound 1-89, 4-[4-(3-dimethylcarbamoyl-4-{(4'-trifluoromethylbiphenyl-2-carbonyl)amino}phenyl)butyryloxy]benzoic acid 2-benzyloxyethyl ester], the figures for the remaining at 10 min in data set [1], in data set [2] and in data set [3] were 6%, 102% and 49%, respectively. For the same compound, the remaining at 1 h is 3% in data set [1], 104% in data set [2] and 0% in data set [3].
`CN(C)C(=O)c1cc(CCCC(=O)Oc2ccc(C(=O)OCCCOCc3ccccc3)cc2)ccc1NC(=O)c1ccccc1-c1ccc(C(F)(F)F)cc1` [Compound 1-90, 4-[4-(3-dimethylcarbamoyl-4-{(4'-trifluoromethylbiphenyl-2-carbonyl)amino}phenyl)butyryloxy]benzoic acid 3-benzyloxypropyl ester]: the figures for the remaining at 10 min in data set [1], in data set [2] and in data set [3] were 7%, 102% and 50%, respectively. The figures for the remaining at 1 h in data set [1], in data set [2] and in data set [3] were 0%, 103% and 0%, respectively.
On to `CN(C)C(=O)c1cc(CCCC(=O)Oc2ccc(C(=O)OCCN3CCCC3=O)cc2)ccc1NC(=O)c1ccccc1-c1ccc(C(F)(F)F)cc1` [Compound 1-91, 4-[4-(3-dimethylcarbamoyl-4-{(4'-trifluoromethylbiphenyl-2-carbonyl)amino}phenyl)butyryloxy]benzoic acid 2-(2-oxopyrrolidin-1-yl)ethyl ester], for which the remaining at 10 min stood at 0% in data set [1], 100% in data set [2] and 31% in data set [3]. Moreover, the figures for the remaining at 1 h in data set [1], in data set [2] and in data set [3] were 0%, 105% and 0%, respectively.
As to `CN(C)C(=O)c1cc(CCCC(=O)Oc2ccc(C(=O)OCCCO)cc2)ccc1NC(=O)c1ccccc1-c1ccc(C(F)(F)F)cc1` [Compound 1-92, 4-[4-(3-dimethylcarbamoyl-4-{(4'-trifluoromethylbiphenyl-2-carbonyl)amino}phenyl)butyryloxy]benzoic acid 3-hydroxypropyl ester], the remaining at 10 min in data set [1] was found to be 0%; in data set [2] it was 102%; in data set [3], 71%. Moreover, the remaining at 1 h in data set [1] amounted to 0%; in data set [2], 107%; in data set [3], 6%.
As to `CCCC(=O)c1ccc(OC(=O)CCCc2ccc(NC(=O)c3ccccc3-c3ccc(C(F)(F)F)cc3)c(C(=O)N(C)C)c2)cc1` [Compound 1-93, 4-(3-dimethylcarbamoyl-4-{(4'-trifluoromethylbiphenyl-2-carbonyl)amino}phenyl)butyric acid 4-butyrylphenyl ester], the remaining at 10 min in data set [1] turned out to be 4%; in data set [2], 107%; in data set [3], 52%. Besides, the remaining at 1 h came to 0% in data set [1], 109% in data set [2] and 0% in data set [3].
As for `Cc1ccc(C(=O)Nc2ccc(CCCC(=O)Oc3ccc(C(=O)OCc4cccnc4)cc3)cc2C(=O)N(C)C)c(-c2ccc(C(F)(F)F)cc2)n1` [Compound 1-94, 4-[4-(3-dimethylcarbamoyl-4-{[6-methyl-2-(4-trifluoromethylphenyl)pyridine-3-carbonyl]amino}phenyl)butyryloxy]benzoic acid pyridin-3-ylmethyl ester], the values for the remaining at 10 min in data set [1], in data set [2] and in data set [3] were 0%, 99% and 41%, respectively. In addition, the remaining at 1 h came to 0% in data set [1], 102% in data set [2] and 9% in data set [3].
In the case of `CN(C)C(=O)c1cc(CCCC(=O)Oc2ccc(-c3nnn(C)n3)cc2)ccc1NC(=O)c1ccccc1-c1ccc(C(F)(F)F)cc1` [Compound 1-95, 4-(3-dimethylcarbamoyl-4-{(4'-trifluoromethylbiphenyl-2-carbonyl)amino}phenyl)butyric acid 4-(2-methyl-2H-tetrazol-5-yl)phenyl ester], the remaining at 10 min in data set [1] was determined as 0%; in data set [2] it was 103%; in data set [3] it was 82%. The values for the remaining at 1 h in data set [1], in data set [2] and in data set [3] were 0%, 102% and 29%, respectively.
In the case of `COc1ccc(COC(=O)c2ccc(OC(=O)CCCc3ccc(NC(=O)c4ccccc4-c4ccc(C(F)(F)F)cc4)c(C(=O)N(C)C)c3)cc2)cc1` [Compound 1-96, 4-[4-(3-dimethylcarbamoyl-4-{(4'-trifluoromethylbiphenyl-2-carbonyl)amino}phenyl)butyryloxy]benzoic acid 4-methoxybenzyl ester], the remaining at 10 min in data set [1] was determined as 15%; in data set [2] it was 100%; in data set [3], 0%. The remaining at 1 h is 7% in data set [1], 109% in data set [2] and 0% in data set [3].
For the compound `COc1cccc(COC(=O)c2ccc(OC(=O)CCCc3ccc(NC(=O)c4ccccc4-c4ccc(C(F)(F)F)cc4)c(C(=O)N(C)C)c3)cc2)c1` [Compound 1-97, 4-[4-(3-dimethylcarbamoyl-4-{(4'-trifluoromethylbiphenyl-2-carbonyl)amino}phenyl)butyryloxy]benzoic acid 3-methoxybenzyl ester], the remaining at 10 min in data set [1] is 13%; in data set [2] it was 100%; in data set [3], 49%. In addition, the remaining at 1 h in data set [1] stood at 7%; in data set [2] it was 104%; in data set [3], 0%.
